The target of one test is CDK1/Cyclin B1 (Homo sapiens, UniProt P06493). Put plainly: CDK1/Cyclin B1 TR-FRET biochemical assay, 1 mM ATP. The settings on record: 0.15 μM Rb (Ser780)-biotin substrate, 90 min reaction, Table 2. Here is the method:
(§1) Compounds disclosed herein were tested for inhibition of CDK2/Cyclin E1 or CDK1/Cyclin B kinase in an assay based on the time-resolved fluorescence-resonance energy transfer (TR-FRET) methodology. The assay was carried out in 384-well low volume black plates in a reaction mixture containing CDK2/Cyclin E1 or CDK1/Cyclin B1, 1 mM ATP for CDK2/Cyclin E1 and CDK1/Cyclin B1, 0.15 μM Rb (Ser780)-biotin substrate and 0-10 μM compound in buffer containing 50 mM HEPES pH7.0, 0.02% NaN3, 0.01% BSA, 0.1 mM Orthovanadate, 50 mM MgCl2, 1 mM DTT and 0.005% Tween-20. The kinase was incubated with compound for 60 minutes at room temperature and the reaction was initiated by the addition of ATP and Rb (Ser780)-biotin substrate. After reaction at room temperature for 90 minutes, an equal volume of stop/detection solution was added according to the manufacture's instruction (Cisbio Bioassays). The stop/detection solution contained Streptavidin-XL665 and Anti-pRb (Ser780) mAb-Eu Cryptate in Detection buffer (Cisbio Bioassays). Plates were incubated at room temperature for 60 minutes, and the TR-FRET signals (ex337 nm, em665 nm/620 nm) were recorded on a PHERAstar FSX plate reader (BMG Labtech). The inhibition percentage of CDK2/Cyclin E1 or CDK1/Cyclin B1 kinase activity in presence of increasing concentrations of compounds was calculated based on the ratio of fluorescence at 665 nm to that at 620 nm. The IC50 for each compound was derived from fitting the data to the four-parameter logistic equation by Dotmatics.
Background: TR-FRET usually uses a lanthanide donor and a delayed reading to cut background.

A further test addresses CDK2/Cyclin E1 (Homo sapiens, UniProt P24941). In words: CDK2/Cyclin E1 TR-FRET biochemical assay, 1 mM ATP. Conditions: 0.15 μM Rb (Ser780)-biotin substrate, 90 min reaction, Table 2. As for the experimental part:
as §1

A value given as a limit tells only on which side of the number the result lay.

The term IC50 denotes the midpoint of a concentration-inhibition curve.

Chain of CDK1/Cyclin B1 (P06493 whole entry): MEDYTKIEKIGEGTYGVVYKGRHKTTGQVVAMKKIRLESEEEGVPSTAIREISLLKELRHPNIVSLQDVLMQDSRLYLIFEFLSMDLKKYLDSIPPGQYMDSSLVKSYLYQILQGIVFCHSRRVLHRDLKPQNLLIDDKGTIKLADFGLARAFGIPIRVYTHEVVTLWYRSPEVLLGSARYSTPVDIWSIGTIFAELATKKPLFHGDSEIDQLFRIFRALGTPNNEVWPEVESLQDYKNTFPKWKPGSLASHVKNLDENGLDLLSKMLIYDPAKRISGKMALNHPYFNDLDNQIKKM
Chain of CDK1/Cyclin B1 (P14635 whole entry partner): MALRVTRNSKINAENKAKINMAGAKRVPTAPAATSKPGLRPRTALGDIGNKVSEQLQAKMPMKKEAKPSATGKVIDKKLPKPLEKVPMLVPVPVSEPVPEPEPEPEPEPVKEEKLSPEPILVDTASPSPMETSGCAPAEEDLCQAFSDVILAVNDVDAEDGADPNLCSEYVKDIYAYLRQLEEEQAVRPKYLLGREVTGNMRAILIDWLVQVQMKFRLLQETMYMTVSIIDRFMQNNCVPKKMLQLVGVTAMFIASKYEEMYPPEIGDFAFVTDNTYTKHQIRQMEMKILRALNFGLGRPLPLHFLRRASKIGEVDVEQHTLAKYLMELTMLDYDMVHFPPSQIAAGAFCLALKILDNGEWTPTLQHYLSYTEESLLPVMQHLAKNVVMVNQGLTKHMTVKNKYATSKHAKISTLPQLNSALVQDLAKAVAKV

`Cc1nc(C2CCC(c3cc(Nc4ccc(S(N)(=O)=O)cc4F)n[nH]3)C2)oc1C(C)(C)C` (stereo not shown) [Example 8, 4-((5-(3-(5-(tert-butyl)-4-methyloxazol-2-yl)cyclopentyl)-1H-pyrazol-3-yl)amino)-3-fluorobenzenesulfonamide]: the IC50 on CDK1/Cyclin B1 was above 10000 nM; at CDK2/Cyclin E1, 79 nM.
As to `NS(=O)(=O)c1ccc(Nc2cc(C3CCC(c4ncc(C5CC5)o4)C3)[nH]n2)c(F)c1` (stereo not shown) [Example 9, 4-((5-(3-(5-cyclopropyloxazol-2-yl)cyclopentyl)-1H-pyrazol-3-yl)amino)-3-fluorobenzenesulfonamide], the IC50 on CDK1/Cyclin B1 was above 10000 nM; on CDK2/Cyclin E1 it was 131 nM.
As to `CC(C)(C)c1ccc(C2CCC(c3cc(Nc4cc5c(cc4F)S(=O)(=O)NC5)n[nH]3)C2)nc1` (stereo not shown) [Example 10, 5-((3-(3-(5-(tert-butyl)pyridin-2-yl)cyclopentyl)-1H-pyrazol-5-yl)amino)-6-fluoro-2,3-dihydrobenzo[d]isothiazole 1,1-dioxide], the IC50 on CDK1/Cyclin B1 and against CDK2/Cyclin E1 was above 10000 nM in each case.
Consider `COc1cccc(C2CCC(c3cc(Nc4cc5c(cc4F)S(=O)(=O)NC5)n[nH]3)C2)n1` (stereo not shown) [Example 11, 6-fluoro-5-((5-(3-(6-methoxypyridin-2-yl)cyclopentyl)-1H-pyrazol-3-yl)amino)-2,3-dihydrobenzo[d]isothiazole 1,1-dioxide], for which the IC50 on CDK1/Cyclin B1 was above 10000 nM; against CDK2/Cyclin E1 it was 2760 nM.
For the compound `Cc1cccc(C2CCC(c3cc(Nc4cc5c(cc4F)S(=O)(=O)NC5)n[nH]3)C2)n1` (stereo not shown) [Example 12, 6-fluoro-5-((5-(3-(6-methylpyridin-2-yl)cyclopentyl)-1H-pyrazol-3-yl)amino)-2,3-dihydrobenzo[d]isothiazole 1,1-dioxide], the results for the half-maximal inhibitory concentration (IC50) against CDK1/Cyclin B1 and against CDK2/Cyclin E1 were above 10000 nM and 3990 nM, respectively.
The like results for `CC(C)(C)c1ccnc(C2CCC(c3cc(Nc4cc5c(cc4F)S(=O)(=O)NC5)n[nH]3)C2)c1` (stereo not shown) [Example 13, 5-((5-(3-(4-(tert-butyl)pyridin-2-yl)cyclopentyl)-1H-pyrazol-3-yl)amino)-6-fluoro-2,3-dihydrobenzo[d]isothiazole 1,1-dioxide] were, in that order, above 10000 nM and 462 nM.
Consider `CC(C)(C)c1cnnc(C2CCC(c3cc(Nc4cc5c(cc4F)S(=O)(=O)NC5)n[nH]3)C2)c1` (stereo not shown) [Example 14, 5-((5-(3-(5-(tert-butyl)pyridazin-3-yl)cyclopentyl)-1H-pyrazol-3-yl)amino)-6-fluoro-2,3-dihydrobenzo[d]isothiazole 1,1-dioxide], for which the IC50 was above 10000 nM on CDK1/Cyclin B1 and 369 nM against CDK2/Cyclin E1.
With `CC(C)(C)c1ccnc(C2CCC(c3cc(Nc4cc5c(cc4F)S(=O)(=O)NC5)n[nH]3)C2)n1` (stereo not shown) [Example 15, 5-((5-(3-(4-(tert-butyl)pyrimidin-2-yl)cyclopentyl)-1H-pyrazol-3-yl)amino)-6-fluoro-2,3-dihydrobenzo[d]isothiazole 1,1-dioxide], the results for the IC50 on CDK1/Cyclin B1 and on CDK2/Cyclin E1 were 1060 nM and 3.7 nM, respectively.
For `CC(C)c1ccnc(C2CCC(c3cc(Nc4cc5c(cc4F)S(=O)(=O)NC5)n[nH]3)C2)n1` (stereo not shown) [Example 16, 6-fluoro-5-((5-(3-(4-isopropylpyrimidin-2-yl)cyclopentyl)-1H-pyrazol-3-yl)amino)-2,3-dihydrobenzo[d]isothiazole 1,1-dioxide], the IC50 against CDK1/Cyclin B1 came to 2490 nM; against CDK2/Cyclin E1, 12 nM.
Regarding `CC(C)c1cnc(C2CCC(c3cc(Nc4cc5c(cc4F)S(=O)(=O)NC5)n[nH]3)C2)o1` (stereo not shown) [Example 18, 6-fluoro-5-((5-(3-(5-isopropyloxazol-2-yl)cyclopentyl)-1H-pyrazol-3-yl)amino)-2,3-dihydrobenzo[d]isothiazole 1,1-dioxide], the values for the IC50 on CDK1/Cyclin B1 and against CDK2/Cyclin E1 were above 10000 nM and 42 nM, respectively.
As to `Cc1nc(C2CCC(c3cc(Nc4cc5c(cc4F)S(=O)(=O)NC5)n[nH]3)C2)oc1C(C)(C)C` (stereo not shown) [Example 19, 5-((5-(3-(5-(tert-butyl)-4-methyloxazol-2-yl)cyclopentyl)-1H-pyrazol-3-yl)amino)-6-fluoro-2,3-dihydrobenzo[d]isothiazole 1,1-dioxide], the results for the IC50 against CDK1/Cyclin B1 and against CDK2/Cyclin E1 were above 10000 nM and 43 nM, respectively.
Regarding `O=S1(=O)NCc2cc(Nc3cc(C4CCC(c5ncc(C6CC6)o5)C4)[nH]n3)c(F)cc21` (stereo not shown) [Example 20, 5-((5-(3-(5-cyclopropyloxazol-2-yl)cyclopentyl)-1H-pyrazol-3-yl)amino)-6-fluoro-2,3-dihydrobenzo[d]isothiazole 1,1-dioxide], the IC50 against CDK1/Cyclin B1 was above 10000 nM; on CDK2/Cyclin E1, 73 nM.
`CC(C)(C)c1coc(C2CCC(c3cc(Nc4ccc5c(c4F)CNS5(=O)=O)n[nH]3)C2)n1` (stereo not shown) [Example 94, 5-((5-(3-(4-(tert-butyl)oxazol-2-yl)cyclopentyl)-1H-pyrazol-3-yl)amino)-4-fluoro-2,3-dihydrobenzo[d]isothiazole 1,1-dioxide]: the IC50 against CDK1/Cyclin B1 is above 10000 nM; on CDK2/Cyclin E1, 417 nM.
The like results for `CC(C)(C)c1cnc(C2CCC(c3cc(Nc4ccc5c(c4F)CNS5(=O)=O)n[nH]3)C2)s1` (stereo not shown) [Example 95, 5-((5-(3-(5-(tert-butyl)thiazol-2-yl)cyclopentyl)-1H-pyrazol-3-yl)amino)-4-fluoro-2,3-dihydrobenzo[d]isothiazole 1,1-dioxide] were, in that order, above 10000 nM and 7200 nM.
The matching figures for `CC(C)(C)n1ccc(C2CCC(c3cc(Nc4ccc5c(c4F)CNS5(=O)=O)n[nH]3)C2)n1` (stereo not shown) [Example 98, 5-((5-(3-(1-(tert-butyl)-1H-pyrazol-3-yl)cyclopentyl)-1H-pyrazol-3-yl)amino)-4-fluoro-2,3-dihydrobenzo[d]isothiazole 1,1-dioxide]: above 10000 nM and 453 nM.
The matching figures for `CC(C)(C)n1cc(C2CCC(c3cc(Nc4ccc5c(c4F)CNS5(=O)=O)n[nH]3)C2)cn1` (stereo not shown) [Example 99, 5-((5-(3-(1-(tert-butyl)-1H-pyrazol-4-yl)cyclopentyl)-1H-pyrazol-3-yl)amino)-4-fluoro-2,3-dihydrobenzo[d]isothiazole 1-dioxide]: above 10000 nM and 3290 nM.
`CC(C)(C)c1cc(C2CCC(c3cc(Nc4ccc5c(c4F)CNS5(=O)=O)n[nH]3)C2)[nH]n1` (stereo not shown) [Example 100, 5-((5-(3-(3-(tert-butyl)-1H-pyrazol-5-yl)cyclopentyl)-1H-pyrazol-3-yl)amino)-4-fluoro-2,3-dihydrobenzo[d]isothiazole 1,1-dioxide]: the IC50 against CDK1/Cyclin B1 is above 10000 nM; against CDK2/Cyclin E1 it was 173 nM.
In the case of `CC(C)(O)c1cc(C2CCC(c3cc(Nc4ccc5c(c4F)CNS5(=O)=O)n[nH]3)C2)n[nH]1` (stereo not shown) [Example 101, 4-fluoro-5-((5-(3-(5-(2-hydroxypropan-2-yl)-1H-pyrazol-3-yl)cyclopentyl)-1H-pyrazol-3-yl)amino)-2,3-dihydrobenzo[d]isothiazole 1,1-dioxide], the IC50 against CDK1/Cyclin B1 was above 10000 nM; on CDK2/Cyclin E1 it was 564 nM.
As for `CC(C)(O)Cn1cc(C2CCC(c3cc(Nc4ccc5c(c4F)CNS5(=O)=O)n[nH]3)C2)cn1` (stereo not shown) [Example 102, 4-fluoro-5-((5-(3-(1-(2-hydroxy-2-methylpropyl)-1H-pyrazol-4-yl)cyclopentyl)-1H-pyrazol-3-yl)amino)-2,3-dihydrobenzo[d]isothiazole 1,1-dioxide], the results for the IC50 against CDK1/Cyclin B1 and at CDK2/Cyclin E1 were above 10000 nM and 813 nM, respectively.
The matching figures for `CC(C)(C)c1cnc(C2CCC(c3cc(Nc4ccc5c(c4F)CNS5(=O)=O)n[nH]3)C2)[nH]1` (stereo not shown) [Example 103, 5-((5-(3-(5-(tert-butyl)-1H-imidazol-2-yl)cyclopentyl)-1H-pyrazol-3-yl)amino)-4-fluoro-2,3-dihydrobenzo[d]isothiazole 1,1-dioxide]: above 10000 nM and above 10000 nM.
As for `CC(C)(C)C1CCC(C2CCC(c3cc(Nc4ccc5c(c4F)CNS5(=O)=O)n[nH]3)C2)O1` (stereo not shown) [Example 104, 5-((5-(3-(5-(tert-butyl)tetrahydrofuran-2-yl)cyclopentyl)-1H-pyrazol-3-yl)amino)-4-fluoro-2,3-dihydrobenzo[d]isothiazole 1,1-dioxide], the IC50 at CDK1/Cyclin B1 is above 10000 nM; on CDK2/Cyclin E1, 1790 nM.
The matching figures for `CC(C)c1ncc(C2CCC(c3cc(Nc4ccc5c(c4F)CNS5(=O)=O)n[nH]3)C2)o1` (stereo not shown) [Example 105, 4-fluoro-5-((5-(3-(2-isopropyloxazol-5-yl)cyclopentyl)-1H-pyrazol-3-yl)amino)-2,3-dihydrobenzo[d]isothiazole 1,1-dioxide]: above 10000 nM and 812 nM.
Turning to `O=S1(=O)NCc2c1ccc(Nc1cc(C3CCC(c4cnc(C5CC5)o4)C3)[nH]n1)c2F` (stereo not shown) [Example 106, 5-((5-(3-(2-cyclopropyloxazol-5-yl)cyclopentyl)-1H-pyrazol-3-yl)amino)-4-fluoro-2,3-dihydrobenzo[d]isothiazole 1,1-dioxide], the IC50 at CDK1/Cyclin B1 is above 10000 nM; at CDK2/Cyclin E1, 1050 nM.

These data come from US20260200897A1, “4-((5-(3-(4-(PYRIDIN-2-YL)CYCLOPENTYL)-1H-PYRAZOL-3-YL)AMINO)-BENZENESULFONAMIDE DERIVATIVES AND SIMILAR COMPOUNDS AS CDK INHIBITORS FOR THE TREATMENT OF CANCER” (BeOne Medicines I GmbH, priority 2023, published 2026).
